Laboratory results published in ChEMBL document CHEMBL1147396, “A new antimalarial quassinoid from Simaba guianensis” (J Nat Prod, 1993).
Values after ≈ are worked out from the molar mass of the structure shown.

Columns and labels:
Plasmodium falciparum [1] = test: Antimalarial activity against chloroquine-resistant Plasmodium falciparum Indochina W2 after 24 to 60 hrs by [G-H3]hypoxanthine uptake; format: functional, organism-based
Plasmodium falciparum [2] = test: Antimalarial activity against mefloquine-resistant Plasmodium falciparum D6 (Sierra Leone) after 24 to 60 hrs by [G-H3]hypoxanthine uptake; format: functional, organism-based

Row | Compound | IC50 (Plasmodium falciparum [1]) [ng/mL] | IC50 (Plasmodium falciparum [2]) [ng/mL]
1 | CC(C)=CC(=O)O[C@H]1C(=O)O[C@@H]2C[C@H]3C(C)=CC(=O)[C@@H](O)[C@]3(C)[C@H]3[C@@H](O)[C@H](O)[C@]4(C)OC[C@]32[C@@H]14 [GUTOLACTONE] | 4 (≈ 8.39 nM) | 4.1 (≈ 8.6 nM)
2 | OC(c1cc(C(F)(F)F)nc2c(C(F)(F)F)cccc12)C1CCCCN1 (configuration not stated) [MEFLOQUINE] | 1.5 (≈ 3.96 nM) | –
3 | CC[C@@H](C)C(=O)O[C@H]1C(=O)O[C@@H]2C[C@H]3C(C)=CC(=O)[C@@H](O)[C@]3(C)[C@H]3[C@@H](O)[C@H](O)[C@]4(C)OC[C@]32[C@@H]14 [SIMALIKALACTONE D] | 1.6 (≈ 3.34 nM) | 1.5 (≈ 3.13 nM)
4 | C[C@@H]1CC[C@H]2[C@@H](C)C(=O)O[C@@H]3O[C@@]4(C)CC[C@@H]1[C@]32OO4 [ARTEMISININ] | – | 2.1 (≈ 7.44 nM)
5 | C=C[C@H]1CN2CC[C@H]1C[C@H]2[C@H](O)c1ccnc2ccc(OC)cc12 [QUININE] | 68.6 (≈ 211 nM) | –
